Data set [1] concerns 8226/Dox human myeloma cells. As to the kind of experiment: Sensitization of 8226/Dox cells to Vincristine by MDR-oligos in 5% oxygen. The following applies: 5% oxygen. The data set is classed as cell-based. The procedure:
(§1) As shown in this example, several oligos which target the MDR1 gene are able to sensitize multidrug-resistant cell lines to the cytotoxic effects of the chemotherapeutic agent Vincristine. Tumor cells were treated in vitro with 10 μM of the indicated oligo for 4 days at 37° C., then counted, dispensed into individual tubes, and pulsed with Vincristine at various doses (serial 5-fold dilutions) for 3 hrs. The cells were then washed and seeded into 96-well plates (quadruplicate replicates) for pulsing with tritiated thymidine 3 days later. Cells were harvested the next day (=4th day after drug treatment). Tritiated thymidine uptake was analyzed by liquid scintillation.

Data set [2] deals with CEM/VLB10 human leukemia cells. As to the kind of experiment: Sensitization of CEM/VLB10 cells to Vincristine by MDR-oligos in 5% oxygen. It is filed as cell-based. The following applies: 5% oxygen; for IC50: Vincristine IC50 after 4 days with 10 μM oligo, read-out: IC50 dose; for Relative sensitization (fold increase): to Vincristine, 10 μM oligo. As for the experimental part: as §1

The test system of data set [3] is 8226/Dox human myeloma cells. As to the kind of experiment: Sensitivity of 8226/Dox cells to Vincristine with increasing time after Vincristine exposure. The following applies: for Relative Sensitization (fold increase) Day 5: Day 5 after Vincristine exposure; for Relative Sensitization (fold increase) Day 7: Day 7 after Vincristine exposure; for Relative Sensitization (fold increase) Day 9: Day 9 after Vincristine exposure. It is filed as cell-based. As for the experimental part: As shown in this example, several oligos which target the MDR1 gene are able to sensitize multidrug-resistant cell lines to the cytotoxic effects of the chemotherapeutic agent Vincristine. […] The cells were then washed and seeded into 96-well plates (quadruplicate replicates) for pulsing with tritiated thymidine 3 days later. Cells were harvested the next day (=4th day after drug treatment). Tritiated thymidine uptake was analyzed by liquid scintillation.
As shown in this example, it was determined that there was an increase in sensitivity of multidrug-resistant 8226/Dox human myeloma cells to Vincristine with increasing time of incubation following initial exposure to Vincristine. The experimental conditions were identical to those utilized in obtaining the data shown in Table 7, except that the present experiment had two additional time points.

The subject of data set [4] is A427 human non-small-cell lung adenocarcinoma cell line. As to the kind of experiment: Sensitization of A427 lung cancer cells to etoposide by MRP-oligos. The data set is classed as cell-based. As for the experimental part: The human non-small-cell lung adenocarcinoma cell line A427 was treated with oligos at various concentrations for 4 days in vitro. The cells then were pulsed with various concentrations of etoposide (range 1.6×10^-4 to 1×10^-6 M) for 3 hrs. Next, cells were trypsinized and seeded by volume into 96-well plates with 12 replicates per treatment condition. Three days later, tritiated thymidine was added and the cells harvested the next day.

A further data set concerns 8226/Dox cells. As to the kind of experiment: Sensitization of 8226/Dox cells to Vincristine by an MRP-oligo and MDR-ODNs. It is filed as cell-based, human. The following applies: for IC50: Vincristine IC50 after oligo treatment, conditions as Example 2, read-out: IC50 dose; for Relative sensitization (fold increase): to Vincristine, vs medium only. As for the experimental part: as §1
In this example, experimental conditions were identical to those utilized in obtaining the data in Example 2.

Data set [5] deals with 8226/Dox4 human myeloma cells. As to the kind of experiment: Vincristine IC50 summary after MDR-oligo treatment. The following applies: oligo 0.2 μM; compared to media control. The data set is classed as cell-based. As for the experimental part: (§2) In vitro testing of MDR-Oligonucleotides was done on the multidrug-resistant (MDR+) RPMI-8226/Dox4 human multiple myeloma cell line (gift of Dr. William Dalton, Univ. Arizona Cancer Ctr., Tucson). Cells were incubated in vitro for 4 days at 37° C. with MDR-oligos at 0.2 μM final concentration; pulsed 18 hr with serial 5-fold dilutions of chemotherapeutic drug (vincristine) from 1×10^-4 M to 2×10^-10 M. Cells were then washed, and incubated for an additional 4 days. Tritiated thymidine (^3 H-TdR) was added for last 18 hr to measure status of cellular proliferation. Controls included MDR^+ 8226 cells similarly treated with vincristine but pretreated either with (a) control ODNs, or (b) culture medium only.

For the next data set, the system named is 8226/Dox4 cells. As to the kind of experiment: Parsimonious regression model estimates of count and Vincristine IC50. The data set is classed as cell-based, human. The following applies: for Estimated Mean Count (cpm): 3H-TdR count at VCR Dose = 0, oligo alone, media only 159,500; for Fold Increase in drug sensitivity: compared to corresponding oligo control (no drug). The procedure: as §2
The following mathematical/statistical model was used to analyze the effects of oligos and various drug treatments on targeted tumor cells in these studies. The model is based on experiments which generally involve treatment of tumor cells with one of several ODNs or media only, and with several dose levels of an anti-cancer agent (such as, for example, vincristine (VCR)) or media only. Analysis goals were to model the relationship of cell kill to the dose of VCR (for example), and to compare the effects of the various ODNs.
This final model contained 10 regressor variables.
Various estimates of parameters from the parsimonious model are shown in TABLE 13, which contains the model estimate of the count for each ODN with media only; differences here (when compared to "media only" [no ODN]) reflect the cell kill associated with the ODN alone. TABLE 13 also contains an estimate of IC50 values, the dose of vincristine (VCR) which is estimated to produce an expected count which is exactly half that expected with "media only" [no VCR]. While formal statistical comparisons of the IC50 values of the various ODNs is not possible, an ordering of the ODNs by estimated IC50 values is possible.

Results on 23 molecules are retold here after patent US5683987A, “Therapeutic oligonucleotides targeting the human MDR1 and MRP genes” (The Board of Regents of the University of Nebraska, priority 1995, dated 1997).

Where “and” joins values, the source holds several entries; their conditions need not be identical. Equal entries are not always repeated. Where two headings read alike, the source gives them in different places.

The term IC50 denotes the concentration at which inhibition is half-maximal. On to “5(1)mdr: SEQ ID NO 10: CCCTACCTCGCGCTCCTTGGAACGGC (CCCTACCTCGCGCTCCTTGGAACGGC; chemistry not given here)”, for which, in data set [1] (Vincristine IC50 after 4 days with 10 μM oligo, read-out: IC50 dose), the IC50 came out at 180 nM. In addition, the “Relative sensitization (fold increase)” value in data set [1] (to Vincristine, 10 μM oligo) was 2.5 fold increase. In data set [2], the IC50 worked out at 90 nM and the “Relative sensitization (fold increase)” value is reported as 111 fold increase. In data set [3] (oligo 2 μM), the “Relative Sensitization (fold increase) Day 5” value was found to be 3.4 fold increase, the “Relative Sensitization (fold increase) Day 7” value is reported as 26.9 fold increase and the “Relative Sensitization (fold increase) Day 9” value worked out at 724 fold increase. Besides, in data set [3] (oligo 10 μM), the “Relative Sensitization (fold increase) Day 5” value amounted to 2.1 fold increase, the “Relative Sensitization (fold increase) Day 7” value was found to be 20.5 fold increase and the “Relative Sensitization (fold increase) Day 9” value turned out to be 423 fold increase.
Consider “5(2)MRP: SEQ ID NO 43: CGGTGGCGCGGGCGGCGGCGGGCACC (CGGTGGCGCGGGCGGCGGCGGGCACC; chemistry not given here)”, for which the “Etoposide (VP-16) Relative Sensitization (fold increase)” value in data set [4] (oligo 10 μM) is 6 fold increase.
“5(3)MRP: SEQ ID NO 42: CGGCGGCGGCGGCGCAGGGAGCCGGG (CGGCGGCGGCGGCGCAGGGAGCCGGG; chemistry not given here)”: in data set [4] (oligo 10 μM), the “Etoposide (VP-16) Relative Sensitization (fold increase)” value is 5 fold increase.
As to `COc1cc([C@@H]2c3cc4c(cc3[C@@H](O[C@@H]3O[C@@H]5CO[C@@H](C)O[C@H]5[C@H](O)[C@H]3O)[C@H]3COC(=O)[C@H]23)OCO4)cc(OC)c1O` [Etoposide (VP-16), etoposide, reference compound], the 50% inhibitory concentration (IC50) was 36000 nM in data set [4] (Homo sapiens, A-427, read-out: Etoposide (VP-16) IC50, Media Control (no oligo)); 50000 nM and 60000 nM in data set [4] (read-out: Etoposide (VP-16) IC50, Media Control (no oligo)).
As to `CO[C@@H]1[C@@H](OC(N)=O)[C@@H](O)[C@H](Oc2ccc3c(O)c(NC(=O)c4ccc(O)c(CC=C(C)C)c4)c(=O)oc3c2C)OC1(C)C` [Novobiocin, novobiocin, reference compound], the “Etoposide (VP-16) Relative Sensitization (fold increase)” value is listed as 5.0 fold increase in data set [4] (novobiocin used at the same time as VP-16) and “about 5 fold increase” in data set [4] (novobiocin used at the same time as VP-16, listed as novobiocin).
For the molecule “OL(2)MRP: SEQ ID NO 49: CGGTGATGCT GTTCGTGCCC (CGGTGATGCTGTTCGTGCCC; chemistry not given here)”, the “Etoposide (VP-16) Relative Sensitization (fold increase)” value in data set [4] (oligo 10 μM) is recorded as 2.4 fold increase.
As for “OL(2)mdr: SEQ ID NO 35: GCAACCAGCA CCCCAGCACC (GCAACCAGCACCCCAGCACC; chemistry not given here)”, in data set [2], the 50% inhibitory concentration (IC50) stood at 160 nM and the “Relative sensitization (fold increase)” value was 62 fold increase. In addition, in the data set on 8226/Dox cells, the IC50 turned out to be 300 nM and the “Relative sensitization (fold increase)” value stood at 3.7 fold increase.
On to “OL(3)MRP: SEQ ID NO 62, position 2848: CCCTGGACCG CTGACGCCCG (CCCTGGACCGCTGACGCCCG; chemistry not given here)”, for which the “Etoposide (VP-16) Relative Sensitization (fold increase)” value in data set [4] (oligo 10 μM) came to 5 fold increase.
Take “OL(3)mdr: SEQ ID NO 37: TGCCCACCAG AGCCAGCGTC (TGCCCACCAGAGCCAGCGTC; chemistry not given here)”: in data set [2], the IC50 turned out to be 200 nM and the “Relative sensitization (fold increase)” value was 50 fold increase. In the data set on 8226/Dox cells, the IC50 stood at 100 nM and the “Relative sensitization (fold increase)” value is given as 11 fold increase.
As to “OL(4)MRP: SEQ ID NO 76: CGATGCCGAC CTTTTCTCC (CGATGCCGACCTTTTCTCC; chemistry not given here)”, the “Etoposide (VP-16) Relative Sensitization (fold increase)” value in data set [4] (oligo 1 μM) came to 3 fold increase.
On to “OL(5)MRP: SEQ ID NO 48: CTGCGGCCCG GAAAACATCA (CTGCGGCCCGGAAAACATCA; chemistry not given here)”, for which the “Etoposide (VP-16) Relative Sensitization (fold increase)” value in data set [4] (oligo 10 μM) is given as 6 fold increase.
With “OL(5)mdr: SEQ ID NO 21: TCTGGACTTT GCCCGCCGCC (TCTGGACTTTGCCCGCCGCC; chemistry not given here)”, in data set [2], the IC50 worked out at 150 nM and the “Relative sensitization (fold increase)” value is 67 fold increase.
Regarding “OL(6)MRP: SEQ ID NO 60: GGGCCAGGCT CACGCGCTGC (GGGCCAGGCTCACGCGCTGC; chemistry not given here)”, the “Etoposide (VP-16) Relative Sensitization (fold increase)” value in data set [4] (oligo 10 μM) worked out at 8 fold increase.
In the case of “OL(6A)mdr: SEQ ID NO 2: GTGCTCAGCC CACGCCCCGG (GTGCTCAGCCCACGCCCCGG; chemistry not given here)”, in the data set on 8226/Dox cells, the IC50 was found to be 88 nM and the “Relative sensitization (fold increase)” value is listed as 12.5 fold increase.
With “OL(10)mdr: SEQ ID NO 11: GCTCCCAGCT TTGCGTGCCC (GCTCCCAGCTTTGCGTGCCC; chemistry not given here)”, in data set [5], the “Fold-Increase in sensitivity to drug treatment” value (from here on “Fold-Increase in sensitivity”) is recorded as 40 fold.
“OL(12)mdr: SEQ ID NO 12: GCGCGCTCCG GGCAACATGG (GCGCGCTCCGGGCAACATGG; chemistry not given here)”: the “Fold-Increase in sensitivity” value in data set [5] is given as 200 fold. Moreover, in the data set on 8226/Dox4 cells, the “Estimated Mean Count (cpm)” value is reported as 159,500 cpm and the “Fold Increase in drug sensitivity” value is 233 fold.
The corresponding values for “OL(12A)mdr: SEQ ID NO 13: CGCGCTCCGGGCAACATGGTCC (CGCGCTCCGGGCAACATGGTCC; chemistry not given here)” are 375 fold, 159,500 cpm and 414 fold.
Consider “OL(12B)mdr: SEQ ID NO 14: CGCGCTCCGG GCAACATG (CGCGCTCCGGGCAACATG; chemistry not given here)”, for which the “Fold-Increase in sensitivity” value in data set [5] came out at 40 fold. Also, in the data set with 8226/Dox4 cells, the “Estimated Mean Count (cpm)” value is listed as 159,500 cpm and the “Fold Increase in drug sensitivity” value was 17.3 fold.
“OL(14)MRP: SEQ ID NO 44: GCGGGTCGGA GCCATCGGCG (GCGGGTCGGAGCCATCGGCG; chemistry not given here)”: in data set [4] (oligo 10 μM), the “Etoposide (VP-16) Relative Sensitization (fold increase)” value is 3 fold increase.
Take “SJ(34)mdr: SEQ ID NO 5: TCGAATGAGC TCAGGCTTCC (TCGAATGAGCTCAGGCTTCC; chemistry not given here)”: the “Fold-Increase in sensitivity” value in data set [5] is listed as 293 fold.
In the case of “SJ(34A)mdr: SEQ ID NO 6: TCGAATGAGC TCAGGCTT (TCGAATGAGCTCAGGCTT; chemistry not given here)”, the “Fold-Increase in sensitivity” value in data set [5] is reported as more than 7500 fold. In addition, in the data set with 8226/Dox4 cells, the “Estimated Mean Count (cpm)” value was 100,300 cpm and the “Fold Increase in drug sensitivity” value is reported as 188 fold.
For the molecule “SJ(34C)mdr: SEQ ID NO 8: AGCTCAGGCT TCCTGTGGCA (AGCTCAGGCTTCCTGTGGCA; chemistry not given here)”, in data set [5], the “Fold-Increase in sensitivity” value is reported as 2182 fold.
“SJ(36)mdr: SEQ ID NO 39: CCAGGGCTTCTTGGACAACCTA (CCAGGGCTTCTTGGACAACCTA; chemistry not given here)”: in data set [2], the concentration for half-maximal inhibition (IC50) worked out at 160 nM and the “Relative sensitization (fold increase)” value is given as 62 fold increase.
